Laboratory results: US10258639B2, “Methods for treating insulin resistance and for sensitizing patients to GLP1 agonist therapy” (Research Development Foundation, priority 2014, dated 2019)

Tested on: INS1 cells
Experiment: RNAseq of INS1 cells grown in chronic high glucose compared to controls and stimulated with FSK (Table 2)
Type: cell-based, rat
Experimental: INS-1 insulinoma cells were cultured in RPMI (corning cellgro) containing 10% fetal bovine serum (Gemini Bio Products), 100 μg/mL penicillin-streptomycin and 1 mM sodium pyruvate (corning cellgro). MIN6 cells were grown in DMEM (corning cellgro) with 10% FBS, 100 μg/mL penicillin-streptomycin and 70 uM beta-mercaptoethanol. For chronic glucose experiments, cells were maintained under low (2.8 mM) or high (20 mM) glucose for 3 days. Exendin-4 (10 nM), Forskolin (10 μM), KCl (40 mM), DMOG (1 mM) and rapamycin (50 nM) were added to cells as indicated. Cellular cAMP levels were measured using an ELISA kit (Cayman Chemical Company) according to manufacturer's instructions. Total RNAs from cells or primary islets were extracted using Trizol and cDNA was generated using the Transcriptor First Strand cDNA Synthesis kit (Roche Applied Science). cDNAs were quantified on a lightcycler 480 instrument (Roche Applied Science). Gene expression data were presented relative to the expression of housekeeping gene L32 (rat samples) and 18S (mouse and human islets). RNA-Seq libraries were prepared using the mRNA isolation protocol and the NEBNext-Ultra kits from New England Biolabs following the manufacturer's protocols. Libraries were quantitated by Qubit (Invitrogen), and run on a MiSeq instrument with paired-end 75 bp reads using v3 chemistry (Illumina) Data were analyzed by tophat2 and cuffdiff against the mouse mm10 genome build. The GEO accession number for RNAseq studies reported in the paper is GSE60158.

C=C[C@@]1(C)CC(=O)[C@]2(O)[C@@]3(C)[C@@H](O)CCC(C)(C)[C@@H]3[C@H](O)[C@H](OC(C)=O)[C@@]2(C)O1 [FSK, Forskolin]
Accsl RNAseq value (High glucose, FSK): 0.1 | Acpt RNAseq value (High glucose, FSK): 0.2 | Acsl4 RNAseq value (High glucose, FSK): 24.1 | Agt RNAseq value (High glucose, FSK): 4.7 | Ahi1 RNAseq value (High glucose, FSK): 18.6 | Bhlha15 RNAseq value (High glucose, FSK): 10.9 | Btg3 RNAseq value (High glucose, FSK): 63.0 | Bysl RNAseq value (High glucose, FSK): 56.8 | Canx RNAseq value (High glucose, FSK): 134.4 | Ccni RNAseq value (High glucose, FSK): 240.1 | Chd1 RNAseq value (High glucose, FSK): 24.3 | Chrne RNAseq value (High glucose, FSK): 0.0 | Ctf1 RNAseq value (High glucose, FSK): 0.4 | Cxcl2 RNAseq value (High glucose, FSK): 1.2 | Cyth3 RNAseq value (High glucose, FSK): 54.2 | Dkc1 RNAseq value (High glucose, FSK): 97.6 | Epha3 RNAseq value (High glucose, FSK): 0.0 | Epor RNAseq value (High glucose, FSK): 0.1 | Fam49a RNAseq value (High glucose, FSK): 0.1 | Ficd RNAseq value (High glucose, FSK): 15.9 | Fmc1 RNAseq value (High glucose, FSK): 28.5 | Fn1 RNAseq value (High glucose, FSK): 320.4 | Gabre RNAseq value (High glucose, FSK): 0.0 | Gars RNAseq value (High glucose, FSK): 308.1 | Ggt5 RNAseq value (High glucose, FSK): 0.0 | Gnl3 RNAseq value (High glucose, FSK): 23.1 | Gnmt RNAseq value (High glucose, FSK): 0.0 | Gzmm RNAseq value (High glucose, FSK): 0.0 | Hmcn1 RNAseq value (High glucose, FSK): 0.0 | Hmga2 RNAseq value (High glucose, FSK): 0.0 | Hnrnpa1 RNAseq value (High glucose, FSK): 35.4 | Hnrpdl RNAseq value (High glucose, FSK): 165.3 | Hs3st2 RNAseq value (High glucose, FSK): 1.0 | Hspa4 RNAseq value (High glucose, FSK): 113.8 | Hspd1 RNAseq value (High glucose, FSK): 63.0 | Icam2 RNAseq value (High glucose, FSK): 0.0 | Il13ra1 RNAseq value (High glucose, FSK): 0.2 | Il28ra RNAseq value (High glucose, FSK): 6.8 | Kcnb1 RNAseq value (High glucose, FSK): 13.1 | Kcnj13 RNAseq value (High glucose, FSK): 0.8 | Kdm1b RNAseq value (High glucose, FSK): 8.1 | Kif9 RNAseq value (High glucose, FSK): 0.0 | LOC683722 RNAseq value (High glucose, FSK): 7.9 | LOC686295 RNAseq value (High glucose, FSK): 3.8 | LOC689959 RNAseq value (High glucose, FSK): 7.2 | Lrfn5 RNAseq value (High glucose, FSK): 0.2 | Map3k4 RNAseq value (High glucose, FSK): 22.7 | Mef2d RNAseq value (High glucose, FSK): 175.0 | Megf10 RNAseq value (High glucose, FSK): 0.2 | Msn RNAseq value (High glucose, FSK): 3.2 | Myof RNAseq value (High glucose, FSK): 0.1 | Nckap1l RNAseq value (High glucose, FSK): 1.8 | Nkx2-2 RNAseq value (High glucose, FSK): 93.4 | Nolc1 RNAseq value (High glucose, FSK): 192.8 | Notch4 RNAseq value (High glucose, FSK): 0.6 | Ormdl3 RNAseq value (High glucose, FSK): 128.5 | Otop3 RNAseq value (High glucose, FSK): 0.0 | Pabpc6 RNAseq value (High glucose, FSK): 0.1 | Pde3b RNAseq value (High glucose, FSK): 45.5 | Pde4dip RNAseq value (High glucose, FSK): 29.3 | Pdrg1 RNAseq value (High glucose, FSK): 28.6 | Plcb2 RNAseq value (High glucose, FSK): 0.0 | RGD1309079 RNAseq value (High glucose, FSK): 0.8 | RGD1311084 RNAseq value (High glucose, FSK): 0.0 | Rab3gap2 RNAseq value (High glucose, FSK): 29.1 | Rab11fip1 RNAseq value (High glucose, FSK): 8.3 | Rap2a RNAseq value (High glucose, FSK): 12.9 | Rho RNAseq value (High glucose, FSK): 0.1 | Rpl7a RNAseq value (High glucose, FSK): 0.7 | Rpl17 RNAseq value (High glucose, FSK): 126.3 | Rrs1 RNAseq value (High glucose, FSK): 71.4 | Sgce RNAseq value (High glucose, FSK): 0.3 | Smad1 RNAseq value (High glucose, FSK): 29.8 | Smad3 RNAseq value (High glucose, FSK): 1.6 | Snapc1 RNAseq value (High glucose, FSK): 2.7 | Sncaip RNAseq value (High glucose, FSK): 4.9 | Spon2 RNAseq value (High glucose, FSK): 0.3 | Srp54 RNAseq value (High glucose, FSK): 27.8 | Stard8 RNAseq value (High glucose, FSK): 0.4 | Syp RNAseq value (High glucose, FSK): 447.7 | T2 RNAseq value (High glucose, FSK): 0.1 | Taf1a RNAseq value (High glucose, FSK): 6.7 | Tex38 RNAseq value (High glucose, FSK): 0.1 | Tmem114 RNAseq value (High glucose, FSK): 0.0 | Tomm20 RNAseq value (High glucose, FSK): 70.0 | Tpp2 RNAseq value (High glucose, FSK): 12.3 | Twistnb RNAseq value (High glucose, FSK): 9.1 | Usp9x RNAseq value (High glucose, FSK): 40.0 | Vps37b RNAseq value (High glucose, FSK): 32.2 | Zfp830 RNAseq value (High glucose, FSK): 17.0 | Zfp385d RNAseq value (High glucose, FSK): 0.1 | Accsl Fold (High glucose, FSK/control): 0.9 | Acpt Fold (High glucose, FSK/control): 3.0 | Acsl4 Fold (High glucose, FSK/control): 1.6 | Agt Fold (High glucose, FSK/control): 1.8 | Ahi1 Fold (High glucose, FSK/control): 1.5 | Bhlha15 Fold (High glucose, FSK/control): 1.1 | Btg3 Fold (High glucose, FSK/control): 1.2 | Bysl Fold (High glucose, FSK/control): 1.5 | Canx Fold (High glucose, FSK/control): 1.1 | Ccni Fold (High glucose, FSK/control): 1.5 | Chd1 Fold (High glucose, FSK/control): 1.4 | Chrne Fold (High glucose, FSK/control): 0.0 | Ctf1 Fold (High glucose, FSK/control): 1.8 | Cxcl2 Fold (High glucose, FSK/control): 3.2 | Cyth3 Fold (High glucose, FSK/control): 3.2 | Dkc1 Fold (High glucose, FSK/control): 1.2 | Epha3 Fold (High glucose, FSK/control): 0.5 | Epor Fold (High glucose, FSK/control): 1.0 | Fam49a Fold (High glucose, FSK/control): 1.0 | Ficd Fold (High glucose, FSK/control): 1.2 | Fmc1 Fold (High glucose, FSK/control): 1.1 | Fn1 Fold (High glucose, FSK/control): 2.7 | Gars Fold (High glucose, FSK/control): 1.8 | Gnl3 Fold (High glucose, FSK/control): 1.3 | Gzmm Fold (High glucose, FSK/control): 0.0 | Hmcn1 Fold (High glucose, FSK/control): 0.3 | Hmga2 Fold (High glucose, FSK/control): 0.0 | Hnrnpa1 Fold (High glucose, FSK/control): 1.4 | Hnrpdl Fold (High glucose, FSK/control): 1.5 | Hs3st2 Fold (High glucose, FSK/control): 2.6 | Hspa4 Fold (High glucose, FSK/control): 1.2 | Hspd1 Fold (High glucose, FSK/control): 1.0 | Icam2 Fold (High glucose, FSK/control): 0.0 | Il13ra1 Fold (High glucose, FSK/control): 1.0 | Il28ra Fold (High glucose, FSK/control): 1.7 | Kcnb1 Fold (High glucose, FSK/control): 0.8 | Kcnj13 Fold (High glucose, FSK/control): 3.0 | Kdm1b Fold (High glucose, FSK/control): 1.4 | Kif9 Fold (High glucose, FSK/control): 0.7 | LOC683722 Fold (High glucose, FSK/control): 1.8 | LOC686295 Fold (High glucose, FSK/control): 1.3 | LOC689959 Fold (High glucose, FSK/control): 0.9 | Lrfn5 Fold (High glucose, FSK/control): 1.2 | Map3k4 Fold (High glucose, FSK/control): 1.3 | Mef2d Fold (High glucose, FSK/control): 1.8 | Msn Fold (High glucose, FSK/control): 1.0 | Myof Fold (High glucose, FSK/control): 0.6 | Nckap1l Fold (High glucose, FSK/control): 0.9 | Nkx2-2 Fold (High glucose, FSK/control): 2.2 | Nolc1 Fold (High glucose, FSK/control): 1.2 | Notch4 Fold (High glucose, FSK/control): 1.7 | Ormdl3 Fold (High glucose, FSK/control): 1.1 | Otop3 Fold (High glucose, FSK/control): 0.0 | Pabpc6 Fold (High glucose, FSK/control): 4.4 | Pde3b Fold (High glucose, FSK/control): 1.9 | Pde4dip Fold (High glucose, FSK/control): 1.4 | Pdrg1 Fold (High glucose, FSK/control): 1.0 | Plcb2 Fold (High glucose, FSK/control): 1.0 | RGD1309079 Fold (High glucose, FSK/control): 1.3 | Rab3gap2 Fold (High glucose, FSK/control): 1.3 | Rab11fip1 Fold (High glucose, FSK/control): 1.9 | Rap2a Fold (High glucose, FSK/control): 2.2 | Rho Fold (High glucose, FSK/control): 0.7 | Rpl7a Fold (High glucose, FSK/control): 2.5 | Rpl17 Fold (High glucose, FSK/control): 1.0 | Rrs1 Fold (High glucose, FSK/control): 1.5 | Sgce Fold (High glucose, FSK/control): 0.8 | Smad1 Fold (High glucose, FSK/control): 1.4 | Smad3 Fold (High glucose, FSK/control): 0.7 | Snapc1 Fold (High glucose, FSK/control): 1.2 | Sncaip Fold (High glucose, FSK/control): 1.4 | Spon2 Fold (High glucose, FSK/control): 0.7 | Srp54 Fold (High glucose, FSK/control): 1.1 | Stard8 Fold (High glucose, FSK/control): 2.3 | Syp Fold (High glucose, FSK/control): 1.5 | T2 Fold (High glucose, FSK/control): 0.7 | Taf1a Fold (High glucose, FSK/control): 1.3 | Tex38 Fold (High glucose, FSK/control): 0.3 | Tomm20 Fold (High glucose, FSK/control): 1.4 | Tpp2 Fold (High glucose, FSK/control): 1.3 | Twistnb Fold (High glucose, FSK/control): 1.5 | Usp9x Fold (High glucose, FSK/control): 1.5 | Vps37b Fold (High glucose, FSK/control): 1.3 | Zfp830 Fold (High glucose, FSK/control): 1.1 | Zfp385d Fold (High glucose, FSK/control): 0.2 | Accsl RNAseq value (Low glucose, FSK): 0.3 | Acpt RNAseq value (Low glucose, FSK): 0.3 | Acsl4 RNAseq value (Low glucose, FSK): 28.6
